T/C data for 23 compounds are collected here from PubChem BioAssay AID256 (DTP/NCI, 2004).

In this test the test system is CD2F1 mice, L1210 leukemia ip, survival T/C. The test can be described thus: NCI In Vivo Anticancer Drug Screen. Data for tumor model L1210 Leukemia (intraperitoneal) in CD2F1 (CDF1) mice. To be noted: endpoint: mean survival time, higher = longer survival. An outline of the steps:
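Transplantable tumor in mice; compound-treated vs vehicle-treated groups. Read-out = treated/control ratio of the measured endpoint.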

Where [1] appears, read: dose: 25.0 mg/kg/injection, schedule: Q04DX003 (ip), vehicle: saline with Tween-80.
Setting [2] is: dose: 50.0 mg/kg/injection, schedule: Q04DX003 (ip), vehicle: saline with Tween-80.
[3] abbreviates: dose: 100.0 mg/kg/injection, schedule: Q04DX003 (ip), vehicle: saline with Tween-80.
The mark [4] stands for this setting: dose: 100.0 mg/kg/injection, schedule: Q01DX009 (ip), vehicle: saline with Tween-80.
[5] abbreviates: dose: 200.0 mg/kg/injection, schedule: Q01DX009 (ip), vehicle: saline with Tween-80.
Setting [6] is: dose: 400.0 mg/kg/injection, schedule: Q01DX009 (ip), vehicle: saline with Tween-80.
Setting [7] is: dose: 200.0 mg/kg/injection, schedule: Q04DX003 (ip), vehicle: saline with Tween-80.
[8] abbreviates: dose: 400.0 mg/kg/injection, schedule: Q04DX003 (ip), vehicle: saline with Tween-80.
The mark [9] stands for this setting: dose: 25.0 mg/kg/injection, schedule: Q01DX009 (ip), vehicle: saline with Tween-80.
The mark [10] stands for this setting: dose: 50.0 mg/kg/injection, schedule: Q01DX009 (ip), vehicle: saline with Tween-80.
The mark [11] stands for this setting: dose: 200.0 mg/kg/injection, schedule: Q04DX003 (ip), vehicle: saline.
Where [12] appears, read: dose: 400.0 mg/kg/injection, schedule: Q04DX003 (ip), vehicle: saline.
Setting [13] is: dose: 100.0 mg/kg/injection, schedule: Q01DX009 (ip), vehicle: saline.
Where [14] appears, read: dose: 100.0 mg/kg/injection, schedule: Q04DX003 (ip), vehicle: saline.
Setting [15] is: dose: 200.0 mg/kg/injection, schedule: Q01DX009 (ip), vehicle: saline.
The mark [16] stands for this setting: dose: 400.0 mg/kg/injection, schedule: Q01DX009 (ip), vehicle: saline.
The mark [17] stands for this setting: dose: 100.0 mg/kg/injection, schedule: Q01DX001 (ip), vehicle: saline with Tween-80.
Setting [18] is: dose: 200.0 mg/kg/injection, schedule: Q01DX001 (ip), vehicle: saline with Tween-80.
[19] abbreviates: dose: 400.0 mg/kg/injection, schedule: Q01DX001 (ip), vehicle: saline with Tween-80.

“And” between values parts separate entries of the source, which are not always exact repeats. Identical values can stand only once. Inconclusive results and toxic doses are left out.

Take `O=C(O)c1cc[c]([Hg][S]c2ncnc3nc[nH]c23)cc1`: the T/C was 98 % of control (dose: 5.0 mg/kg/injection, schedule: Q01DX001 (ip), vehicle: saline); 98 % of control (dose: 10.0 mg/kg/injection, schedule: Q01DX001 (ip), vehicle: saline); 101 % of control (dose: 20.0 mg/kg/injection, schedule: Q01DX001 (ip), vehicle: saline); 98 % of control under setting [1]; 119 % of control (dose: 33.0 mg/kg/injection, schedule: Q04DX003 (ip), vehicle: saline sonified); 172 % of control (dose: 37.5 mg/kg/injection, schedule: Q01DX009 (ip), vehicle: saline sonified). The T/C (dose: 40.0 mg/kg/injection, schedule: Q01DX001 (ip), vehicle: saline) is 98 % of control; the T/C (dose: 50.0 mg/kg/injection, schedule: Q04DX003 (ip), vehicle: saline sonified) is 119 % of control; the T/C under setting [2] is 104 % of control; the T/C (dose: 80.0 mg/kg/injection, schedule: Q01DX001 (ip), vehicle: saline) was 104 % of control; the T/C (dose: 100.0 mg/kg/injection, schedule: Q01DX009 (ip), vehicle: saline sonified) was 120 % of control; the T/C under setting [3] is 121 % of control and 101 % of control.
Take `C(CC1CO1)CC1OC1CC1CO1` (centres undefined): the T/C is, setting by setting: (dose: 39.0 mg/kg/injection, schedule: Q01DX009 (ip), vehicle: saline) 109 % of control; (dose: 75.0 mg/kg/injection, schedule: Q01DX001 (ip), vehicle: saline) 109 % of control; (dose: 133.0 mg/kg/injection, schedule: Q01DX009 (ip), vehicle: saline) 156 % of control; (dose: 150.0 mg/kg/injection, schedule: Q01DX001 (ip), vehicle: saline) 119 % of control.
`Nc1ncnc2c1ncn2CCCN1C(=O)c2ccccc2C1=O`: the T/C runs as follows: under setting [4], 93 % of control; under setting [5], 95 % of control; under setting [6], 101 % of control.
On to `COC(=O)/C=N/NS(=O)(=O)c1cccc(N)c1`, for which the T/C was 110 % of control (dose: 25.0 mg/kg/injection, schedule: Q04DX003 (ip), vehicle: water); 104 % of control (dose: 50.0 mg/kg/injection, schedule: Q04DX003 (ip), vehicle: water); 108 % of control (dose: 100.0 mg/kg/injection, schedule: Q04DX003 (ip), vehicle: water); 112 % of control (dose: 200.0 mg/kg/injection, schedule: Q04DX003 (ip), vehicle: water).
As for `Cc1ccc(C(O)c2c(C)cc(C)cc2C)c(C)c1` (centres undefined), the T/C by setting is: under setting [3], 94 % of control; under setting [7], 89 % of control; under setting [8], 88 % of control.
With `CCC(=O)NC1=CC(=O)c2ccccc2C1=O`, the T/C reads like this: under setting [9], 101 % of control; under setting [10], 100 % of control.
As for `CC1=Nc2ccccc2N2C1=CC1=C(C(=O)c3cc4ccccc4cc3C1=O)C2C` (centres undefined), the T/C is, setting by setting: (dose: 12.5 mg/kg/injection, schedule: Q04DX003 (ip), vehicle: saline with Tween-80) 101 % of control; under setting [1], 122 % of control; under setting [2], 101 % of control; under setting [11], 94 % of control; under setting [12], 90 % of control.
As to `CN(C)CCCNCc1c[nH]c(=O)[nH]c1=O`, the T/C was 90 % of control under setting [13]; 102 % of control under setting [14]; 102 % of control under setting [15]; 100 % of control under setting [11]; 104 % of control under setting [16]; 100 % of control under setting [12].
As to `O=P(OCc1ccccc1)(N(CCCl)CCCl)N1CCCCC1` (centres undefined), the T/C is 98 % of control (dose: 62.5 mg/kg/injection, schedule: Q01DX010 (ip), vehicle: saline); 101 % of control (dose: 125.0 mg/kg/injection, schedule: Q01DX010 (ip), vehicle: saline); 90 % of control (dose: 250.0 mg/kg/injection, schedule: Q01DX010 (ip), vehicle: saline).
Regarding `O=C1/C(=C/c2ccccc2)CCSc2ccccc21`, the T/C under setting [17] was 90 % of control, the T/C under setting [18] is 94 % of control and the T/C under setting [19] was 90 % of control.
In the case of `CC(=O)Nc1c([N+](=O)[O-])cc2c3c(cccc13)C=C2`, the T/C runs as follows: under setting [3], 95 % of control; under setting [7], 92 % of control; under setting [8], 104 % of control.
Regarding `CCC(C)CC(=O)O` (centres undefined), the T/C was 95 % of control under setting [13]; 102 % of control under setting [14]; 98 % of control under setting [15]; 102 % of control under setting [11]; 96 % of control under setting [16]; 97 % of control under setting [12].
Consider `C[N+]1(CCO)C2CCC1CC(O)C2` (centres undefined), for which the T/C is, setting by setting: (dose: 100.0 mg/kg/injection, schedule: Q04DX002 (ip), vehicle: saline) 97 % of control; (dose: 200.0 mg/kg/injection, schedule: Q04DX002 (ip), vehicle: saline) 102 % of control.
For `CC1CCC(O)C2(C)CC(O)C(C(C)C(=O)O)CC12` (centres undefined), the T/C is, setting by setting: under setting [17], 92 % of control; under setting [18], 92 % of control; under setting [19], 88 % of control.
On to `O=c1cn[nH]c2ccc(Br)cc12`, for which the T/C (dose: 100.0 mg/kg/injection, schedule: Q01DX001 (ip), vehicle: other) was 97 % of control; the T/C (dose: 200.0 mg/kg/injection, schedule: Q01DX001 (ip), vehicle: other) is 102 % of control; the T/C (dose: 400.0 mg/kg/injection, schedule: Q01DX001 (ip), vehicle: other) is 91 % of control.
As for `NOCc1csc(NC(=O)Nc2ccccc2)n1`, the T/C is 110 % of control (dose: 18.8 mg/kg/injection, schedule: Q01DX001 (ip), vehicle: saline with Tween-80); 98 % of control (dose: 18.8 mg/kg/injection, schedule: Q04DX003 (ip), vehicle: saline with Tween-80); 112 % of control (dose: 37.5 mg/kg/injection, schedule: Q01DX001 (ip), vehicle: saline with Tween-80); 98 % of control (dose: 37.5 mg/kg/injection, schedule: Q04DX003 (ip), vehicle: saline with Tween-80); 96 % of control (dose: 75.0 mg/kg/injection, schedule: Q01DX001 (ip), vehicle: saline with Tween-80); 98 % of control (dose: 75.0 mg/kg/injection, schedule: Q04DX003 (ip), vehicle: saline with Tween-80).
`Cc1c(C(=O)O)nc(/C=C/C(Cl)(Cl)Cl)[nH]c1=O`: the T/C is 104 % of control (dose: 25.0 mg/kg/injection, schedule: Q01DX005 (ip), vehicle: other); 103 % of control (dose: 50.0 mg/kg/injection, schedule: Q01DX005 (ip), vehicle: other); 97 % of control (dose: 100.0 mg/kg/injection, schedule: Q01DX005 (ip), vehicle: other); 106 % of control (dose: 200.0 mg/kg/injection, schedule: Q01DX005 (ip), vehicle: other); 95 % of control (dose: 400.0 mg/kg/injection, schedule: Q01DX005 (ip), vehicle: other).
For `Cc1c(Cl)c(N)c(Cl)c(Cl)c1Cl`, the T/C was 101 % of control under setting [3], 104 % of control under setting [7] and 96 % of control under setting [8].
On to `O=C(c1ccccc1)C(C(c1ccccc1)N1CCOCC1)N1CCOCC1` (centres undefined), for which the T/C under setting [3] was 90 % of control; the T/C under setting [5] was 96 % of control; the T/C under setting [7] was 92 % of control; the T/C under setting [6] was 93 % of control; the T/C under setting [8] is 97 % of control.
Take `CC(C)=CCN1C(=O)c2ccccc2C1=O`: the T/C under setting [9] is 102 % of control; the T/C under setting [1] is 101 % of control; the T/C under setting [10] is 98 % of control; the T/C under setting [2] is 101 % of control; the T/C under setting [4] was 96 % of control; the T/C under setting [3] is 110 % of control.
Turning to `CC1CN=C(c2ccc(NC(=O)Nc3ccc(NC(=O)c4ccc(C5=NCC(C)N5)cc4)cc3)cc2)N1` (centres undefined), the T/C (dose: 26.0 mg/kg/injection, schedule: Q01DX Z (ip), vehicle: water) is 90 % of control.
In the case of `COC(=O)C1(C)CCCC2(C)C1CCC13OCC(CC21)C(O)(C(C)C)C3O` (centres undefined), the T/C under setting [3] was 95 % of control, the T/C under setting [7] is 97 % of control and the T/C under setting [8] was 103 % of control.
Regarding `CCOC(=O)C1OC12c1cccc3cccc(c13)C21OC1C(=O)OCC` (centres undefined), the T/C under setting [3] is 97 % of control, the T/C under setting [7] was 95 % of control and the T/C under setting [8] was 91 % of control.
